System: human foetal foreskin fibroblasts (HFFF2)
Assay: Responsiveness of the in1360 genome to Trichostatin A: β-galactosidase activity in infected HFFF2 cells
Format: cell-based
Protocol: Trichostatin A (TSA) is an agent that inhibits deacetylases. When it is added to cells, histones and other proteins involved in transcriptions become hyperacetylated, because they are not deacetylated. This frequently results in activation of gene expression. In the case of HSV-1 mutants, the genome is not responsive to TSA once the quiescent state has been established. Monolayers of HFFF2 cells were infected with in1360 and maintained at 38.5° C. At 8 days after infection, cells were either untreated or treated with 660 nM TSA. After maintenance at 38.5° C. for a further 2 days, extracts were made and β-galactosidase activities were measured. The extracts from untreated cells gave a value of 121 units (range 113-129), whereas extracts from TSA-treated cells gave a value of 806 unites (range 739-873), a stimulation of 6.7-fold.

## CC(/C=C/C(=O)NO)=C\[C@@H](C)C(=O)c1ccc(N(C)C)cc1 [TSA, Trichostatin A]
660 nM TSA added 8 days after infection, a further 2 days at 38.5° C., range 739-873
  β-galactosidase activity, extracts from TSA-treated cells: 806 unites
660 nM TSA for 2 days, 10 days after infection
  effect of TSA on X-gal stained cells (in words): increased the number of positive cells and the intensity of straining
660 nM TSA versus untreated
  stimulation of β-galactosidase activity by TSA: 6.7 fold
